Data reported in patent US9062066B2, “Anti-inflammatory compound having inhibitory activity against multiple tyrosine kinases and pharmaceutical composition containing same” (KOREA INSTITUTE OF SCIENCE AND TECHNOLOGY, priority 2010, dated 2015).
Where two headings read alike, the source gives them in different places.

How the values were obtained:
[1] = test system: NO synthesis in J744A.1 macrophage; experiment: inhibition of nitric oxide (NO) synthesis in LPS-activated macrophages (Griess reagent); type: cell-based; details: read-out: Inhibition (%) of NO synthesis
Lyn tyrosine kinase = Lyn tyrosine kinase (Homo sapiens (Human), UniProt P07948); experiment: in vitro Lyn tyrosine kinase inhibition; type: biochemical; details: 1 uM compound; read-out: % inhibition against Lyn
Fgr tyrosine kinase = Fgr tyrosine kinase (Homo sapiens (Human), UniProt P09769); experiment: in vitro Fgr tyrosine kinase inhibition; type: biochemical; details: 1 uM compound; read-out: % inhibition against Fgr
[2] = test system: α-smooth muscle actin protein expression in skin fibroblast cells; experiment: inhibition of α-smooth muscle actin expression in fibroblast activated by type I collagen and TGF-β1 (western blotting); type: cell-based, Balb/C mouse; details: Mus musculus, 0.5 uM compound, 10 ng/ml TGF-β1, 48 hours, type I collagen, read-out: Inhibition (%) of α-smooth muscle actin increase
Procedure, shortened: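 α-Smooth muscle actin protein was detected by western blotting with chemiluminescence on X-ray film. Levels were quantified by densitometry of the band.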

DDR2 tyrosine kinase = DDR2 tyrosine kinase (Homo sapiens (Human), UniProt Q16832); experiment: in vitro DDR2 tyrosine kinase inhibition (GST-fused kinase domain); type: biochemical; details: 1 uM compound; read-out: % inhibition against DDR2
c-Src tyrosine kinase = c-Src tyrosine kinase (Homo sapiens (Human), UniProt P12931); experiment: in vitro c-Src tyrosine kinase inhibition (32P-ATP, poly(D4Y)n substrate); type: biochemical; details: 1 uM compound; read-out: % inhibition against c-Src
mouse skin fibroblast = experiment: inhibition of migration of activated fibroblast (scratch wound); type: cell-based; details: 0.5 uM compound, 10 ng/ml TGF-β1, 24 hours, read-out: Inhibition (%) of migration of activated fibroblast
Procedure, shortened: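 Scratch wound was made on a fibroblast monolayer, then cells were kept in DMEM with 10 ng/ml TGF-β1 at 37° C for 24 hours. After formalin fixation and crystal violet staining, cells that had moved into the wound were counted at 100× in five random fields and averaged.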

Hck tyrosine kinase = Hck tyrosine kinase (Homo sapiens (Human), UniProt P08631); experiment: in vitro Hck tyrosine kinase inhibition; type: biochemical; details: 1 uM compound; read-out: % inhibition against Hck
[3] = test system: TNF-α synthesis in J744A.1 macrophages; experiment: inhibition of TNF-α synthesis in LPS-activated macrophages (ELISA); type: cell-based; details: Macrophage, read-out: Inhibition (%) of TNF-α synthesis
DDR1 tyrosine kinase = DDR1 tyrosine kinase (Homo sapiens (Human), UniProt Q08345); experiment: in vitro DDR1 tyrosine kinase inhibition (GST-fused kinase domain); type: biochemical; details: 1 uM compound; read-out: % inhibition against DDR1
[4] = test system: oxazolone-induced skin inflammation of Balb/C mouse ears; experiment: mouse skin inflammatory model induced by oxazolone (ear thickness); type: in vivo; details: 20 ul of 0.1% compound topical on ear, 36 hours after oxazolone
Procedure: The compounds of the present invention were evaluated for their effective anti-inflammatory activity using a skin inflammatory animal model of 8 weeks old Balb/C mouse ears induced by oxazolone. […] After 4 days, the thickness of ear was measured using a caliper for the thickness value of ear before the induction of inflammation. […] After 36 hours, the thickness of ear was measured for the increased thickness induced by inflammation. […] The average value was obtained in each group (n=4).

[5] = 10 μM compound, 100 ng/ml LPS, 6 hours

Sequence of DDR2 tyrosine kinase (Q16832 563-849): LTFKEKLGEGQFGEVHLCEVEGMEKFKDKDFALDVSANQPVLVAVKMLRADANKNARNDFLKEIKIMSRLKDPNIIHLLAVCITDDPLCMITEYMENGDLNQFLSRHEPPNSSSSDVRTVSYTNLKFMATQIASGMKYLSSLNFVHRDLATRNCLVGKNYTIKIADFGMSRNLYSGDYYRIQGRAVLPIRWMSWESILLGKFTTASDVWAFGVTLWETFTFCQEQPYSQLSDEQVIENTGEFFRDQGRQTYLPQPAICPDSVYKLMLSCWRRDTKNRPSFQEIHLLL
Sequence of Hck tyrosine kinase (P08631 whole entry): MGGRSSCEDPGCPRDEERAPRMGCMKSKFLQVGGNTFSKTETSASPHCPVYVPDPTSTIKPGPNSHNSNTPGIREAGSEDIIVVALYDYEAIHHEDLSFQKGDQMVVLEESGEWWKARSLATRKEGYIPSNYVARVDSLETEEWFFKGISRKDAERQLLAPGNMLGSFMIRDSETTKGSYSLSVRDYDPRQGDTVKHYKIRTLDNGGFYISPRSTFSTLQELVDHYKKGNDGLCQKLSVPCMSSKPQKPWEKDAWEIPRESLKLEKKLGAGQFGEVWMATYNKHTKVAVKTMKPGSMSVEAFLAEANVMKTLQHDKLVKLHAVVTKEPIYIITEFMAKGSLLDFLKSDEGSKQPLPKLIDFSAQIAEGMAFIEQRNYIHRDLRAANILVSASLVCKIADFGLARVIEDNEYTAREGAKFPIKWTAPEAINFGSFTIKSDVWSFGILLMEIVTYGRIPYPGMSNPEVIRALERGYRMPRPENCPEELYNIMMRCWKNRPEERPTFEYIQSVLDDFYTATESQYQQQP
Sequence of Fgr tyrosine kinase (P09769 whole entry): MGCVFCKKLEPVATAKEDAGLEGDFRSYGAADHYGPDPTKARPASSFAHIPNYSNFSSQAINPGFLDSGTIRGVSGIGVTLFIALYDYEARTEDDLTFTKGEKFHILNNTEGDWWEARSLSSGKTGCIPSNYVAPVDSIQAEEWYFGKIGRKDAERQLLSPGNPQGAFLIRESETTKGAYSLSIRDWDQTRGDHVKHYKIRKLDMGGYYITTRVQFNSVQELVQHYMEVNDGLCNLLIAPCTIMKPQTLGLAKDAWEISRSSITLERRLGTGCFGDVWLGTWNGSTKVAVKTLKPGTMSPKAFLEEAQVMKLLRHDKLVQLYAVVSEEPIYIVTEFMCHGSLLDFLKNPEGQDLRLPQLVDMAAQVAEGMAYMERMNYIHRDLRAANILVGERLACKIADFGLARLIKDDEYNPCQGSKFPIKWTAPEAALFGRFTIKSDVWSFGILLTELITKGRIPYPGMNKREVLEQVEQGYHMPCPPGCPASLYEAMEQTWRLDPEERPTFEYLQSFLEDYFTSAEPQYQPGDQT
Sequence of DDR1 tyrosine kinase (Q08345 610-905): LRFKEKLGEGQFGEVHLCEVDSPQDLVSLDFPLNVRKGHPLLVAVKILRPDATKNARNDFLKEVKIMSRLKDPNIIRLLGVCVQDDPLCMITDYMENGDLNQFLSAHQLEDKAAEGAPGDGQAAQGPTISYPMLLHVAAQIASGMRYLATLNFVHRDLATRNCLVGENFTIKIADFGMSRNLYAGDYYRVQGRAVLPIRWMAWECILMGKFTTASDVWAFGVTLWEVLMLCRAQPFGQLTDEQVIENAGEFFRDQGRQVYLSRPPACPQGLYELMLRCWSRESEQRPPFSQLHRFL
Sequence of c-Src tyrosine kinase (P12931 whole entry, looked up): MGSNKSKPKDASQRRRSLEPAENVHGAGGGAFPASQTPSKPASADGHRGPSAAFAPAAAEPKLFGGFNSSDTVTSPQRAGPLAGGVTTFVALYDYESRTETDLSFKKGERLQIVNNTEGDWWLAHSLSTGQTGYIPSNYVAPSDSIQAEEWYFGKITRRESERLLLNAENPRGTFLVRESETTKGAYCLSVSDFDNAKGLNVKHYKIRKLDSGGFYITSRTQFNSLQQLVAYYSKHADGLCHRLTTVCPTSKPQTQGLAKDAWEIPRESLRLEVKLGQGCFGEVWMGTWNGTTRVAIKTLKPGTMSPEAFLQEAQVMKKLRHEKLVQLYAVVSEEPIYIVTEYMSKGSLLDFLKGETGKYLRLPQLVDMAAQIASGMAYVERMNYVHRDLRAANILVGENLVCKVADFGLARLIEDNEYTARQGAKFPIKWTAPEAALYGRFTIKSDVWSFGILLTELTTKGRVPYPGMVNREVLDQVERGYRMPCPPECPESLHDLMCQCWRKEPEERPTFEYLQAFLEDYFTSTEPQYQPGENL
Sequence of Lyn tyrosine kinase (P07948 whole entry): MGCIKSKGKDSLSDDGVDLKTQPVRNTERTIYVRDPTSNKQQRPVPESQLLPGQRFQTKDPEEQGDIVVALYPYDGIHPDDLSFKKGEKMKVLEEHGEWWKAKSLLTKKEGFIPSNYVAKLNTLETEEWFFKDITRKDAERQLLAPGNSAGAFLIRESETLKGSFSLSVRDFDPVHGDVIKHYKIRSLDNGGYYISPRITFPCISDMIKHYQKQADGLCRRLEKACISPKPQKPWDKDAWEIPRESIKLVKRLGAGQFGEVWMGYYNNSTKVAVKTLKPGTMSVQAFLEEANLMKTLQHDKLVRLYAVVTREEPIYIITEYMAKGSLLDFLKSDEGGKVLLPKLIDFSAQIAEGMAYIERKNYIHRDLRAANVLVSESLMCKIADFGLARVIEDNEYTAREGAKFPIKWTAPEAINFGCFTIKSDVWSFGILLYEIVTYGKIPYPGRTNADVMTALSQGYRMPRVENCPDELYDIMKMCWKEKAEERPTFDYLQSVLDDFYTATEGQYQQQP

| SMILES | inhibition at 10 µM ([1]; 10 μM compound, LPS, 24 hours) [%] | inhibition at 1 µM (Lyn tyrosine kinase) [%] | inhibition at 1 µM (Fgr tyrosine kinase) [%] | inhibition at 0.5 µM [2] [%] | inhibition at 1 µM (DDR2 tyrosine kinase) [%] | inhibition at 1 µM (c-Src tyrosine kinase) [%] | inhibition at 0.5 µM (mouse skin fibroblast) [%] | inhibition at 1 µM (Hck tyrosine kinase) [%] | inhibition at 10 µM [3, 5] [%] | inhibition at 1 µM (DDR1 tyrosine kinase) [%] | Inhibition (%) of increase of ear thickness [4] [%] | inhibition at 10 µM ([1]; 24 h) [%] | inhibition at 10 µM ([3]; 6 h) [%] |
| --- | --- | --- | --- | --- | --- | --- | --- | --- | --- | --- | --- | --- | --- |
| Oc1cccc(Nc2ccnc3cc(-c4ccc(CN5CCOCC5)cc4)sc23)c1 [LCB 03-0083, 3-(2-(4-(morpholinomethyl)phenyl)thieno[3,2-b]pyridin-7-ylamino)phenol] | 71 | > 60 | > 60 | 55 | > 80 | > 60 | 33 | > 60 | 62 | > 80 | 47 |  |  |
| CN1CCN(Cc2ccc(-c3cc4nccc(Nc5cccc(O)c5)c4s3)cc2)CC1 [LCB 03-0084, 3-(2-(4-((4-methylpiperazin-1-yl)methyl)phenyl)thieno[3,2-b]pyridin-7-ylamino)phenol] | 85 | > 60 | > 60 | 57 | > 80 | > 60 | 36 | > 60 | 64 | > 80 | 49 |  |  |
| Oc1cccc(Nc2ncnc3cc(-c4ccc(CN5CCCC5)s4)sc23)c1 [LCB 03-0085, 3-(6-(5-(pyrrolidin-1-ylmethyl)thiophene-2-yl)thieno[3,2-d]pyrimidin-4-ylamino)phenol] |  | > 70 | > 70 | 51 | > 80 | > 70 | 35 | > 70 |  | > 80 | 53 | 93 | 74 |
| Oc1cccc(Nc2ncnc3cc(-c4ccc(CN5CCCC5)o4)sc23)c1 [LCB 03-0086, 3-(6-(5-(pyrrolidin-1-ylmethyl)furan-2-yl)thieno[3,2-d]pyrimidin-4-ylamino)phenol] |  | > 70 | > 70 | 33 | > 80 | > 70 | 21 | > 70 |  | > 80 | 48 | 72 | 68 |
| CN1CCN(Cc2ccc(-c3cc4ncnc(Nc5cccc(O)c5)c4s3)o2)CC1 [LCB 03-0087, 3-(6-(5-((4-methylpiperazin-1-yl)methyl)furan-2-yl)thieno[3,2-d]pyrimidin-4-ylamino)phenol] |  | > 70 | > 70 | 29 | > 70 | > 70 | 24 | > 70 |  | > 70 | 43 | 83 | 68 |
| Oc1cccc(Nc2ncnc3cc(-c4ccc(CN5CCCCC5)o4)sc23)c1 [LCB 03-0088, 3-(6-(5-(piperidin-1-ylmethyl)furan-2-yl)thieno[3,2-d]pyrimidin-4-ylamino)phenol] |  | > 70 | > 70 | 52 | > 90 | > 70 | 27 | > 70 |  | > 90 | 51 | 97 | 73 |
| Oc1cccc(Nc2ncnc3cc(-c4ccc(CN5CCOCC5)o4)sc23)c1 [LCB 03-0089, 3-(6-(5-(morpholinomethyl)furan-2-yl)thieno[3,2-d]pyrimidin-4-ylamino)phenol] |  | > 70 | > 70 | 25 | > 70 | > 70 | 19 | > 70 |  | > 70 | 59 | 86 | 71 |
| Oc1cccc(Nc2ncnc3cc(-c4ccc(CN5CCNCC5)o4)sc23)c1 [LCB 03-0090, 3-(6-(5-(piperazin-1-ylmethyl)furan-2-yl)thieno[3,2-d]pyrimidin-4-ylamino)phenol] |  | > 70 | > 70 | 44 | > 70 | > 70 | 26 | > 70 |  | > 70 | 56 | 90 | 63 |
| CCNCc1ccc(-c2cc3ncnc(Nc4cccc(O)c4)c3s2)o1 [LCB 03-0091, 3-(6-(5-((ethylamino)methyl)furan-2-yl)thieno[3,2-d]pyrimidin-4-ylamino)phenol] |  | > 70 | > 70 | 39 | > 70 | > 70 | 39 | > 70 |  | > 70 | 49 | 92 | 68 |
| CN1CCN(Cc2ccc(-c3cc4ncnc(Nc5cccc(O)c5)c4s3)s2)CC1 [LCB 03-0092, 3-(6-(5-((4-methylpiperazin-1-yl)methyl)thiophene-2-yl)thieno[3,2-d]pyrimidin-4-ylamino)phenol] |  | > 60 | > 50 | 37 | > 80 | > 60 | 28 | > 60 |  | > 80 | 47 | 90 | 64 |
| Oc1cccc(Nc2ncnc3cc(-c4ccc(CN5CCCCC5)s4)sc23)c1 [LCB 03-0093, 3-(6-(5-(piperidin-1-ylmethyl)thiophene-2-yl)thieno[3,2-d]pyrimidin-4-ylamino)phenol] |  | > 60 | > 60 | 43 | > 80 | > 60 | 31 | > 60 |  | > 80 | 51 | 79 | 53 |
| Oc1cccc(Nc2ncnc3cc(-c4ccc(CN5CCNCC5)s4)sc23)c1 [LCB 03-0094, 3-(6-(5-(piperazin-1-ylmethyl)thiophene-2-yl)thieno[3,2-d]pyrimidin-4-ylamino)phenol] |  | > 60 | > 60 | 41 | > 80 | > 60 | 29 | > 60 |  | > 80 | 49 | 77 | 56 |
| Oc1cccc(Nc2ccnc3cc(-c4cccc(CN5CCCC5)c4)sc23)c1 [LCB 03-0107, 3-(2-(3-(pyrrolidin-1-ylmethyl)phenyl)thieno[3,2-b]pyridin-7-ylamino)phenol] |  | > 70 | > 70 | 71 | > 80 | > 70 | 58 | > 70 |  | > 80 | 59 | 81 | 45 |
| CN1CCN(Cc2cccc(-c3cc4nccc(Nc5cccc(O)c5)c4s3)c2)CC1 [LCB 03-0108, 3-(2-(3-((4-methylpiperazin-1-yl)methyl)phenyl)thieno[3,2-b]pyridin-7-ylamino)phenol] |  | > 80 | > 80 | 75 | > 80 | > 80 | 56 | > 80 |  | > 80 | 63 | 92 | 53 |
